Results published in PubChem BioAssay AID2060892 (Molecular Pharmacology Branch, DTP, NCI, 2025).

Test system: HOP-62 complex spheroids with HUVEC/MSC, viability
Test: Anticancer human tumor HOP-62 cell line growth inhibition [RAS];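 note: spheroids exposed to agents for seven days before readout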;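 for viability, T/C: 100% = DMSO vehicle control viability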
Conditions: for viability, T/C: stronger effect = lower value
Procedure, shortened: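 Agents were tested in combination matrices in half-log decrements from a top concentration at or near clinical Cmax (10 microM if undetermined). Targets were multi-cell spheroids of tumour lines plus HUVEC and MSC stromal cells.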

CC(Nc1ccc2c(c1)OCCn1cc(N3C(=O)OCC3C(F)F)nc1-2)C(N)=O (stereo unspecified) + CCn1c(-c2cc(N3CCN(C)CC3)cnc2C(C)OC)c2c3cc(ccc31)-c1csc(n1)CC(NC(=O)C1CC1C)C(=O)N1CCCC(N1)C(=O)OCC(C)(C)C2
IC50 (curve of first compound, second compound 0.000949 µM): 1370 nM
IC50 (curve of first compound, second compound 0.003 µM): 365 nM
IC50 (curve of first compound, second compound 0.00949 µM): < 31.6 nM
IC50 (curve of first compound, second compound 0.03 µM): < 31.6 nM
IC50 (curve of first compound, second compound 0.0949 µM): < 31.6 nM
IC50 (curve of first compound, second compound 0.3 µM): < 31.6 nM
viability, T/C (second compound 0.000949 µM, first compound 0.0316 µM): 91.4%
viability, T/C (second compound 0.000949 µM, first compound 0.1 µM): 69.2%
viability, T/C (second compound 0.000949 µM, first compound 0.316 µM): 53.9%
viability, T/C (second compound 0.000949 µM, first compound 1 µM): 61%
viability, T/C (second compound 0.000949 µM, first compound 3.16 µM): 49.9%
viability, T/C (second compound 0.000949 µM, first compound 10 µM): 25.9%
viability, T/C (second compound 0.003 µM, first compound 0.0316 µM): 75.9%
viability, T/C (second compound 0.003 µM, first compound 0.1 µM): 52.7%
viability, T/C (second compound 0.003 µM, first compound 0.316 µM): 47.5%
viability, T/C (second compound 0.003 µM, first compound 1 µM): 46.2%
viability, T/C (second compound 0.003 µM, first compound 3.16 µM): 36.7%
viability, T/C (second compound 0.003 µM, first compound 10 µM): 15.7%
viability, T/C (second compound 0.00949 µM, first compound 0.0316 µM): 48.4%
viability, T/C (second compound 0.00949 µM, first compound 0.1 µM): 36.8%
viability, T/C (second compound 0.00949 µM, first compound 0.316 µM): 36.1%
viability, T/C (second compound 0.00949 µM, first compound 1 µM): 27.4%
viability, T/C (second compound 0.00949 µM, first compound 3.16 µM): 19.2%
viability, T/C (second compound 0.00949 µM, first compound 10 µM): 12.6%
viability, T/C (second compound 0.03 µM, first compound 0.0316 µM): 33.1%
viability, T/C (second compound 0.03 µM, first compound 0.1 µM): 23.2%
viability, T/C (second compound 0.03 µM, first compound 0.316 µM): 22.5%
viability, T/C (second compound 0.03 µM, first compound 1 µM): 21.5%
viability, T/C (second compound 0.03 µM, first compound 3.16 µM): 13.8%
viability, T/C (second compound 0.03 µM, first compound 10 µM): 14.7%
viability, T/C (second compound 0.0949 µM, first compound 0.0316 µM): 27.1%
viability, T/C (second compound 0.0949 µM, first compound 0.1 µM): 24.8%
viability, T/C (second compound 0.0949 µM, first compound 0.316 µM): 20.5%
viability, T/C (second compound 0.0949 µM, first compound 1 µM): 21.5%
viability, T/C (second compound 0.0949 µM, first compound 3.16 µM): 12.8%
viability, T/C (second compound 0.0949 µM, first compound 10 µM): 14%
viability, T/C (second compound 0.3 µM, first compound 0.0316 µM): 32.5%
viability, T/C (second compound 0.3 µM, first compound 0.1 µM): 20.1%
viability, T/C (second compound 0.3 µM, first compound 0.316 µM): 21.3%
viability, T/C (second compound 0.3 µM, first compound 1 µM): 17.3%
viability, T/C (second compound 0.3 µM, first compound 3.16 µM): 13.4%
viability, T/C (second compound 0.3 µM, first compound 10 µM): 15.7%

CCC(CC)c1cc(NC2CCC(N)C2)n2nccc2n1 (stereo unspecified) + C#Cc1c(F)ccc2cc(O)cc(-c3ncc4c(N5CC6CCC(C5)N6)nc(OCC56CCCN5CC(F)C6)nc4c3F)c12
IC50 (curve of first compound, second compound 0.0316 µM): 1650 nM
IC50 (curve of first compound, second compound 0.1 µM): 1860 nM
IC50 (curve of first compound, second compound 0.316 µM): 1800 nM
IC50 (curve of first compound, second compound 1 µM): 1750 nM
IC50 (curve of first compound, second compound 3.16 µM): 1540 nM
IC50 (curve of first compound, second compound 10 µM): 1120 nM
viability, T/C (second compound 0.0316 µM, first compound 0.0316 µM): 108%
viability, T/C (second compound 0.0316 µM, first compound 0.1 µM): 111%
viability, T/C (second compound 0.0316 µM, first compound 0.316 µM): 107%
viability, T/C (second compound 0.0316 µM, first compound 1 µM): 88.2%
viability, T/C (second compound 0.0316 µM, first compound 3.16 µM): 0.7%
viability, T/C (second compound 0.0316 µM, first compound 10 µM): 0.37%
viability, T/C (second compound 0.1 µM, first compound 0.0316 µM): 112%
viability, T/C (second compound 0.1 µM, first compound 0.1 µM): 115%
viability, T/C (second compound 0.1 µM, first compound 0.316 µM): 118%
viability, T/C (second compound 0.1 µM, first compound 1 µM): 107%
viability, T/C (second compound 0.1 µM, first compound 3.16 µM): 1.36%
viability, T/C (second compound 0.1 µM, first compound 10 µM): 1.21%
viability, T/C (second compound 0.316 µM, first compound 0.0316 µM): 122%
viability, T/C (second compound 0.316 µM, first compound 0.1 µM): 105%
viability, T/C (second compound 0.316 µM, first compound 0.316 µM): 111%
viability, T/C (second compound 0.316 µM, first compound 1 µM): 101%
viability, T/C (second compound 0.316 µM, first compound 3.16 µM): 0.69%
viability, T/C (second compound 0.316 µM, first compound 10 µM): 0.93%
viability, T/C (second compound 1 µM, first compound 0.0316 µM): 108%
viability, T/C (second compound 1 µM, first compound 0.1 µM): 104%
viability, T/C (second compound 1 µM, first compound 0.316 µM): 99.9%
viability, T/C (second compound 1 µM, first compound 1 µM): 96.7%
viability, T/C (second compound 1 µM, first compound 3.16 µM): 0.48%
viability, T/C (second compound 1 µM, first compound 10 µM): 0.25%
viability, T/C (second compound 3.16 µM, first compound 0.0316 µM): 83.7%
viability, T/C (second compound 3.16 µM, first compound 0.1 µM): 90.8%
viability, T/C (second compound 3.16 µM, first compound 0.316 µM): 88.3%
viability, T/C (second compound 3.16 µM, first compound 1 µM): 79.5%
viability, T/C (second compound 3.16 µM, first compound 3.16 µM): 0.74%
viability, T/C (second compound 3.16 µM, first compound 10 µM): 1.33%
viability, T/C (second compound 10 µM, first compound 0.0316 µM): 48.1%
viability, T/C (second compound 10 µM, first compound 0.1 µM): 47.3%
viability, T/C (second compound 10 µM, first compound 0.316 µM): 56%
viability, T/C (second compound 10 µM, first compound 1 µM): 70.2%
viability, T/C (second compound 10 µM, first compound 3.16 µM): 0.95%
viability, T/C (second compound 10 µM, first compound 10 µM): 0.56%

CCn1c(-c2cccnc2C(C)OC)c2c3cc(ccc31)N1CCOC(CC(NC(=O)C(C(C)C)N(C)C(=O)C3(F)CCN(C(=O)C#CC(C)(C)N(C)C)CC3)C(=O)N3CCCC(N3)C(=O)OCC(C)(C)C2)C1 (stereo unspecified)
viability, T/C (compound 0.000949 µM): 107% [middle of 8 runs]
viability, T/C (compound 0.003 µM): 99.7% [middle of 8 runs]
viability, T/C (compound 0.00949 µM): 90.7% [middle of 8 runs]
viability, T/C (compound 0.03 µM): 90.4% [middle of 8 runs]
viability, T/C (compound 0.0949 µM): 85.9% [middle of 8 runs]
viability, T/C (compound 0.3 µM): 83.2% [middle of 8 runs]
IC50 (compound alone, run of 07/09/2024): > 300 nM
